# pIC50: −log10 of the molar value.
# Tested on: anti-PCP antibody from ATCC HB 9198
# Type: binding, rat
# Details: for pIC50: read-out: Molar IC50
Structure (SMILES),Percent Cross Reactivity With PCP [%],pIC50,reaction with the antipentachlorophenol antibody
"Oc1ccc(Cl)c(Cl)c1Cl [2,3,4-Trichlorophenol]",0.5,–,–
"Oc1c(Cl)c(Cl)cc(Cl)c1Cl [2,3,5,6-Tetrachlorophenol]",42,–,–
"Oc1cc(Cl)cc(Cl)c1Cl [2,3,5-Trichlorophenol]",0.5,–,–
"Oc1c(Cl)ccc(Cl)c1Cl [2,3,6-Trichlorophenol]",8.8,–,–
"Oc1cccc(Cl)c1Cl [2,3-Dichlorophenol]",0,< 3.00,–
"Oc1ccc(Cl)cc1Cl [2,4-Dichlorophenol]",0,< 3.00,–
"Oc1cc(Cl)ccc1Cl [2,5-Dichlorophenol]",0,< 3.00,–
"Oc1c(Cl)cccc1Cl [2,6-Dichlorophenol]",1.8,–,–
"Oc1ccc(Cl)c(Cl)c1 [3,4-Dichlorophenol]",0,< 3.00,–
"Oc1cc(Cl)cc(Cl)c1 [3,5-Dichlorophenol]",0,< 3.00,–
Oc1ccc(Cl)cc1 [4-Chlorophenol],0,< 3.00,–
Clc1cc(Cl)c(Cl)c(Cl)c1Cl [Pentachlorobenzene],0,< 3.00,fails to react
Oc1ccccc1 [Phenol],0,< 3.00,–
Oc1c(Cl)c(Cl)c(O)c(Cl)c1Cl [Tetrachlorohydroquinone],0.8,–,–

# From patent EP0260829A2 (priority 1986, dated 1988)
